According to patent US5607937A, “Piperazides of substituted phenylalanine derivatives as thrombin inhibitors” (priority 1993, dated 1997):
Where two headings read alike, the source gives them in different places.

Legend:
[1] = plasma concentration in rats after intravenous administration; format: in vivo; settings: rat; for concentration at 0.25 h: 15 min; for concentration at 0.5 h: 30 min; for concentration at 1 h: 60 min; for elimination in words: i.v.
Experimental: (§3) A physiological NaCl solution of the substance to be tested was submitted to high pressure liquid chromatography (HPLC) in order to determine its characteristic substance-specific retention time with the chosen test conditions.
(§4) The substance to be tested was diluted in vitro in rat plasma. This solution was also submitted to HPLC to see whether the characteristic peak of the substance once again appeared at the substance-specific retention time.
(§5) Blood samples were taken at time intervals of 15 minutes, from which plasma samples were prepared by centrifugation; those samples were also submitted to HPLC to see whether the characteristic peak of the substance appeared again at the substance-specific retention time.
(§6) After administration, blood samples were taken from the test animals at time intervals from 2 to maximally 360 minutes and the blood level of the compounds to be tested was determined by HPLC.

factor Xa = factor Xa (Bos taurus, UniProt P00743); assay: inhibition of factor Xa, dissociation constant Ki; format: biochemical; settings: Table 1
Experimental: (§1) The biological activity of the compounds of the present invention was determined in vitro as well as in vivo.

[2] = plasma concentration in rats after rectal administration; format: in vivo; settings: rat; for concentration at 0.5 h: 30 min; for concentration at 1 h: 60 min; for concentration at 2 h: 120 min; for concentration at 3 h: 180 min
factor XIIa = target: T1, factor XIIa (Homo sapiens, UniProt P00748); assay: inhibition of factor XIIa, dissociation constant Ki
T1 sequence (P00748 373-615 limits assumed): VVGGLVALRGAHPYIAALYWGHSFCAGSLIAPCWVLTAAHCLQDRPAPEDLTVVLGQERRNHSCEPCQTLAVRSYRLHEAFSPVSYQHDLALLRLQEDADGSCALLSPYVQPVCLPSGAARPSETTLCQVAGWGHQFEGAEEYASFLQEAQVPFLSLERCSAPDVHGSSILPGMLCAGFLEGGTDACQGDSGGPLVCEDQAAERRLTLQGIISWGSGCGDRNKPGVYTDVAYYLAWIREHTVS

[3] = system: coagulation in human plasma; assay: prothrombin time (PT, Quick value) in human plasma
plasma kallikrein = plasma kallikrein (Homo sapiens, UniProt P03952); assay: inhibition of plasma kallikrein, dissociation constant Ki
glandular kallikrein = glandular kallikrein (Sus scrofa, UniProt P00752); assay: inhibition of glandular kallikrein, dissociation constant Ki
tPA = tPA (Homo sapiens, UniProt P00750); assay: inhibition of tPA, dissociation constant Ki
[4] = system: coagulation in human plasma; assay: thrombin time (TT) in human plasma
[5] = plasma concentration in rats after oral administration; format: in vivo; settings: rat; for resorption in words: oral
Experimental: as §3, §4, §5, §6

[6] = system: coagulation in human plasma; assay: activated partial thromboplastin time (aPTT) in human plasma
plasmin = plasmin (Homo sapiens, UniProt P00747); assay: inhibition of plasmin, dissociation constant Ki
[7] = system: coagulation in rat plasma; assay: aPTT in rat plasma after rectal application; format: in vivo
Experimental: (§2) After rectal administration of the compounds to be tested, the anticoagulant effect was determined in the plasma of experimental animals.

trypsin = target: T2, trypsin (Bos taurus, UniProt P00760); assay: inhibition of trypsin, dissociation constant Ki; format: biochemical; set-up: thrombin and the related enzymes trypsin, plasmin, factor Xa, factor XIIa; settings: Table 1; read-out: Ki, Trypsin
T2 sequence (P00760 24-246): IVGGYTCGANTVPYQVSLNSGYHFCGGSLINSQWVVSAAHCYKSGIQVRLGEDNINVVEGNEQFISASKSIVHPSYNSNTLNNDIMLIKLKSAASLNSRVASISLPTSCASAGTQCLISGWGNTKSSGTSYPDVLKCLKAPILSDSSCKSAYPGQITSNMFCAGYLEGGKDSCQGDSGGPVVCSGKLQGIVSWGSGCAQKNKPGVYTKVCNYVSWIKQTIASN
Experimental: as §1

[8] = concentration in rat plasma in the anticoagulant study after rectal application; format: in vivo; settings: for concentration at 0.5 h / concentration at 1 h / concentration at 2 h / concentration at 3 h: plasma; for concentration at 0.5 h: 30 min; for concentration at 1 h: 60 min; for concentration at 2 h: 120 min; for concentration at 3 h: 180 min; for Concentration in plasma: 0 min
in vivo = settings: rat, intraduodenal 100 mg/kg; for Concentration in plasma: hydrochloride, 100 mg/kg
[9] = system: coagulation in rat plasma; assay: thrombin time in rat plasma after rectal application; format: in vivo
Experimental: as §2

Sequence of glandular kallikrein (P00752 8-246): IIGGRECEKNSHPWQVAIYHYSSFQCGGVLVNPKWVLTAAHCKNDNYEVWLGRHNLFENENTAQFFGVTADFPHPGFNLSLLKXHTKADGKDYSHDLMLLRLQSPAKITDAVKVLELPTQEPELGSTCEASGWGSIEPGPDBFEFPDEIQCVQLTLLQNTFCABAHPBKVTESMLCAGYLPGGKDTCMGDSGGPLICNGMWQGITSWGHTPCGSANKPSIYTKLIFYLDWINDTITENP
Sequence of plasma kallikrein (P03952 391-638 limits assumed, species assumed): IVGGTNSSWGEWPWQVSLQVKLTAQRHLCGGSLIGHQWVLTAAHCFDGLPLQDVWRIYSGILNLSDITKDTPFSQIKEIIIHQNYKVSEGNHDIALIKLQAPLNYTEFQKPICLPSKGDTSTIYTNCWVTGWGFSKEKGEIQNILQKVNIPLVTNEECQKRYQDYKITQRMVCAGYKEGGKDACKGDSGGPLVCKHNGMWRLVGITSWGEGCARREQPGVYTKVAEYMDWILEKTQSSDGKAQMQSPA
Sequence of plasma kallikrein (P03952 20-390 partner limits assumed, species assumed): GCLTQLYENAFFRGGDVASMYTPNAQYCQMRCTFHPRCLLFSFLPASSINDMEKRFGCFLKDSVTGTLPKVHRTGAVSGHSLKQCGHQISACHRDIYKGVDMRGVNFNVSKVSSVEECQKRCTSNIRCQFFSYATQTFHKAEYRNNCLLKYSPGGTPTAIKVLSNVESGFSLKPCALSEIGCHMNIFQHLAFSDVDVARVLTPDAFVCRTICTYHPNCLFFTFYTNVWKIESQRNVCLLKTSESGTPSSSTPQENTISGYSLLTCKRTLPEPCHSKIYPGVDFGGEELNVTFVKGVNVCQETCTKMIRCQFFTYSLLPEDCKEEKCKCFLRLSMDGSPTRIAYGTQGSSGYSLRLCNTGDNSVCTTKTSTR
Sequence of tPA (P00750 36-562): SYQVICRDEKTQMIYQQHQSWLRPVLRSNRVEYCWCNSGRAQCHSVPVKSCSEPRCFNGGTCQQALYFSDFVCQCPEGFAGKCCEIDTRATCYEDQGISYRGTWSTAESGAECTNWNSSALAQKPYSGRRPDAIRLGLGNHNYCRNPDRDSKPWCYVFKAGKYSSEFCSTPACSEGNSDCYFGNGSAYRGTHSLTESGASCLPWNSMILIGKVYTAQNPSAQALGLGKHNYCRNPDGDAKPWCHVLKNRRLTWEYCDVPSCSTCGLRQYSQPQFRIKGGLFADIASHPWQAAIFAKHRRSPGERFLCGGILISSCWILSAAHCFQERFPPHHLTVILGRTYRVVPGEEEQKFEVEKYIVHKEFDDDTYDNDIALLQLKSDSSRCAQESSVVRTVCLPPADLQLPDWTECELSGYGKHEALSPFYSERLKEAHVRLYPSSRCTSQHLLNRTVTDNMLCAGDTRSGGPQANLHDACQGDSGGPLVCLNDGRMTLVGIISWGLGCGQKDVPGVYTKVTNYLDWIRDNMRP
Sequence of plasmin (P00747 581-810 limits assumed): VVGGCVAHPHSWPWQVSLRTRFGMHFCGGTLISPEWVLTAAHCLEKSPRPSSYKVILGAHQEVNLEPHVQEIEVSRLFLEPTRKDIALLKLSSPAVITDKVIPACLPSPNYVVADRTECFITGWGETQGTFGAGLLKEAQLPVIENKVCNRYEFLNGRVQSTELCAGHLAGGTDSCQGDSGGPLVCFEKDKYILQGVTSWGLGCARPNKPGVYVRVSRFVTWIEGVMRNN
Sequence of plasmin (P00747 97-580 partner limits assumed): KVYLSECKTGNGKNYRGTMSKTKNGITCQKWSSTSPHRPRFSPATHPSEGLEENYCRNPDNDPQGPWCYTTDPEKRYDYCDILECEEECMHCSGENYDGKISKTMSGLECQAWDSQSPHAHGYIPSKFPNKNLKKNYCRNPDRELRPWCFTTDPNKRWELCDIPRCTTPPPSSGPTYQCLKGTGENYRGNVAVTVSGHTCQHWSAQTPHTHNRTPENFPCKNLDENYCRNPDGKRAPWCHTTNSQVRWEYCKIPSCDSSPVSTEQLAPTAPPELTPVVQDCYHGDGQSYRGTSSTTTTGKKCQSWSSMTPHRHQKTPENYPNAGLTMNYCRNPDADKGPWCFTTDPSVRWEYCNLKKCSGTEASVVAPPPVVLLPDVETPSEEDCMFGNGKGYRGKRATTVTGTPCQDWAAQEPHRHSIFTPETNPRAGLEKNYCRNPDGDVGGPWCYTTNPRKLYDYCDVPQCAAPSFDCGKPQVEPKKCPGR
Sequence of factor Xa (P00743 234-492 limits assumed): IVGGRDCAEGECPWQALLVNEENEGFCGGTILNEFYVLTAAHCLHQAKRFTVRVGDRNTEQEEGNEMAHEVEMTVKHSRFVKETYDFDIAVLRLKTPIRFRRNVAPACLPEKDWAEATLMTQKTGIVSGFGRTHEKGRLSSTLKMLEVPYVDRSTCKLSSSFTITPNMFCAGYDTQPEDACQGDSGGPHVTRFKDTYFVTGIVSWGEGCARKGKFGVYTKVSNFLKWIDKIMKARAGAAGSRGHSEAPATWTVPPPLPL
Sequence of factor Xa (P00743 41-180 partner limits assumed): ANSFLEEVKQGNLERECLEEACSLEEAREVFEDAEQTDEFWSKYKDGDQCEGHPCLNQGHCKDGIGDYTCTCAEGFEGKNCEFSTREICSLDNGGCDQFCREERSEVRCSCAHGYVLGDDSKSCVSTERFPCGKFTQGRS

CC(=O)N1CCN(C(=O)C(Cc2cccc(C(=N)N)c2)NS(=O)(=O)c2ccc3ccccc3c2)CC1 (centres unmarked) [Compound 1]
concentration at 5 min ([1]; plasma, iv, i.v. 1 mg/kg): 1060 ng/mL | concentration at 0.25 h ([1]; plasma, iv, i.v. 1 mg/kg): 394 ng/mL | concentration at 0.5 h ([1]; plasma, iv, i.v. 1 mg/kg): 150 ng/mL | concentration at 1 h ([1]; plasma, iv, i.v. 1 mg/kg): 89 ng/mL | concentration at 2 h ([1]; plasma, iv, i.v. 1 mg/kg, 120 min): 74 ng/mL | concentration at 3 h ([1]; plasma, iv, i.v. 1 mg/kg, 180 min): 51 ng/mL | elimination in words [1]: eliminated at comparable rate | Ki (factor Xa): 48 µM | concentration at 0.5 h ([2]; plasma, rectal 100 mg/kg): 31400 ng/mL | concentration at 1 h ([2]; plasma, rectal 100 mg/kg): 17900 ng/mL | concentration at 2 h ([2]; plasma, rectal 100 mg/kg): 3780 ng/mL | concentration at 3 h ([2]; plasma, rectal 100 mg/kg): 1080 ng/mL | concentration at 4 h ([2]; plasma, rectal 100 mg/kg, 240 min): 438 ng/mL | concentration at 5 h ([2]; plasma, rectal 100 mg/kg, 300 min): 220 ng/mL | concentration at 6 h ([2]; plasma, rectal 100 mg/kg, 360 min): 158 ng/mL | detectable in plasma after rectal administration ([2]; rectal): ≥ 6 h | Ki (factor XIIa): 210 µM | Concentr. to double the Prothrombin time [3]: 2.5 µmol/L | concentration to double the PT [3]: ≤ 1 μmol/1 | Ki (plasma kallikrein): 28 µM | Ki (glandular kallikrein): > 1000 µM | Ki (tPA): > 1000 µM | Concentr. to double the Thrombin time [4]: 0.095 µmol/L | concentration to double the TT [4]: less than 10^-7 mol/1 | concentration at 0.5 h ([5]; plasma, oral 50 mg/kg, 30 min): 87 ng/mL | concentration at 1 h ([5]; plasma, oral 50 mg/kg, 60 min): 63 ng/mL | concentration at 2 h ([5]; plasma, oral 50 mg/kg, 120 min): 57 ng/mL | concentration at 3 h ([5]; plasma, oral 50 mg/kg, 180 min): 69 ng/mL | concentration at 4 h ([5]; plasma, oral 50 mg/kg, 240 min): 91 ng/mL | concentration at 5 h ([5]; plasma, oral 50 mg/kg, 300 min): 61 ng/mL | resorption in words [5]: only slightly resorbed | Concentr. to double the aPTT [6]: 0.90 µmol/L | concentration to double the aPTT [6]: ≤ 1 μmol/1 | Ki (plasmin; read-out: Ki, Plasmin, Table 1): 8.4 µM

CS(=O)(=O)N1CCN(C(=O)[C@H](Cc2cccc(C(=N)N)c2)NS(=O)(=O)c2ccc3ccccc3c2)CC1.Cl [Compound 5, Nα-(2-naphthylsulfonyl)-3-amidino-(L)-phenylalanine-4methylsulfonylpiperazide hydrochloride]
concentration at 5 min ([1]; plasma, iv, i.v. 1 mg/kg): 879 ng/mL | concentration at 0.25 h ([1]; plasma, iv, i.v. 1 mg/kg): 367 ng/mL | concentration at 0.5 h ([1]; plasma, iv, i.v. 1 mg/kg): 151 ng/mL | concentration at 1 h ([1]; plasma, iv, i.v. 1 mg/kg): 50 ng/mL | elimination in words [1]: eliminated at comparable rate | Concentration in plasma ([1]; i.v. 1 mg/kg, 120 min): 0 ng/mL | Concentration in plasma ([1]; i.v. 1 mg/kg, 180 min): 0 ng/mL | Clotting time, aPTT ([7]; rectal 5 mg/kg, 0 min): 21.2 s | Clotting time, aPTT ([7]; rectal 5 mg/kg, 30 min): 34.5 s | Clotting time, aPTT ([7]; rectal 5 mg/kg, 60 min): 30.5 s | Clotting time, aPTT ([7]; rectal 5 mg/kg, 120 min): 27.5 s | Clotting time, aPTT ([7]; rectal 5 mg/kg, 180 min): 25.3 s | Clotting time, aPTT ([7]; rectal 20 mg/kg, 0 min): 22 s | Clotting time, aPTT ([7]; rectal 20 mg/kg, 30 min): 65 s | Clotting time, aPTT ([7]; rectal 20 mg/kg, 60 min): 62.5 s | Clotting time, aPTT ([7]; rectal 20 mg/kg, 120 min): 36 s | Clotting time, aPTT ([7]; rectal 20 mg/kg, 180 min): 29.7 s | Ki (trypsin): 0.067 µM | concentration at 0.5 h ([2]; plasma, rectal 20 mg/kg): 1650 ng/mL | concentration at 1 h ([2]; plasma, rectal 20 mg/kg): 958 ng/mL | concentration at 2 h ([2]; plasma, rectal 20 mg/kg): 299 ng/mL | concentration at 3 h ([2]; plasma, rectal 20 mg/kg): 192 ng/mL | Ki (factor XIIa): 52 µM | Concentr. to double the Prothrombin time [3]: 0.39 µmol/L | concentration to double the PT [3]: ≤ 1 μmol/1 | concentration at 0.5 h ([8]; rectal 5 mg/kg): 168 ng/mL | concentration at 1 h ([8]; rectal 5 mg/kg): 65 ng/mL | concentration at 2 h ([8]; rectal 5 mg/kg): 82 ng/mL | concentration at 3 h ([8]; rectal 5 mg/kg): 10 ng/mL | concentration at 0.5 h ([8]; rectal 20 mg/kg): 1570 ng/mL | concentration at 1 h ([8]; rectal 20 mg/kg): 983 ng/mL | concentration at 2 h ([8]; rectal 20 mg/kg): 380 ng/mL | concentration at 3 h ([8]; rectal 20 mg/kg): 195 ng/mL | Concentration in plasma ([8]; rectal 5 mg/kg): 0 ng/mL | Concentration in plasma ([8]; rectal 20 mg/kg): 0 ng/mL | Ki (plasma kallikrein): 9.2 µM | concentration at 3 h (in vivo; plasma, 180 min): 297 ng/mL | concentration at 4 h (in vivo; plasma, 240 min): 530 ng/mL | concentration at 5 h (in vivo; plasma, 300 min): 137 ng/mL | concentration at 6 h (in vivo; plasma, 360 min): 119 ng/mL | Concentration in plasma (in vivo; 30 min): 8744 ng/mL | Concentration in plasma (in vivo; 30 min, listed as 5*): 1576 ng/mL | Concentration in plasma (in vivo; 60 min): 9314 ng/mL | Concentration in plasma (in vivo; 60 min, listed as 5*): 1900 ng/mL | Concentration in plasma (in vivo; 120 min): 8612 ng/mL | Concentration in plasma (in vivo; 120 min, listed as 5*): 1763 ng/mL | Ki (glandular kallikrein): > 1000 µM | Ki (tPA): 190 µM | Concentr. to double the Thrombin time [4]: 0.034 µmol/L | concentration to double the TT [4]: less than 10^-7 mol/1 | Clotting time, Thrombin time ([9]; rectal 5 mg/kg, 0 min): 51.5 s | Clotting time, Thrombin time ([9]; rectal 5 mg/kg, 30 min): > 300 s | Clotting time, Thrombin time ([9]; rectal 5 mg/kg, 60 min): 255 s | Clotting time, Thrombin time ([9]; rectal 5 mg/kg, 120 min): 137.5 s | Clotting time, Thrombin time ([9]; rectal 5 mg/kg, 180 min): 95 s | Clotting time, Thrombin time ([9]; rectal 20 mg/kg, 0 min): 153 s | Clotting time, Thrombin time ([9]; rectal 20 mg/kg, 30 min): > 300 s | Clotting time, Thrombin time ([9]; rectal 20 mg/kg, 60 min): > 300 s | Clotting time, Thrombin time ([9]; rectal 20 mg/kg, 120 min): > 300 s | Clotting time, Thrombin time ([9]; rectal 20 mg/kg, 180 min): > 300 s | resorption in words [5]: only slightly resorbed | Concentr. to double the aPTT [6]: 0.26 µmol/L | concentration to double the aPTT [6]: ≤ 1 μmol/1 | Ki (plasmin): 9 µM
